Experimental data published in article PMC4874011, “Identification and functional characterization of the sulfate transporter gene GmSULTR1;2b in soybean” (BMC Genomics, 2016).

Tested on: T1, GmSULTR1;2b
T1 construct: C-terminal STAS domain
Experiment: […]-sulfate uptake in sul1 sul2 yeast cells, Michaelis-Menten fit
Type: cell-based, Glycine max
Conditions: pH 6.0; proton-coupled uptake; yeast CP154-7A; labelled compound

O=S(=O)(O)O [sulfate] gave a Km of 9.5 ± 1.7 µM.
